From publication PMC2904697, “A Screen for Kinetochore-Microtubule Interaction Inhibitors Identifies Novel Antitubulin Compounds” (PLoS ONE, 2010)
pIC50: −log10 of the molar value. Values joined by “and” are separate entries in the source; they are usually repeats but may differ in a detail not shown here. Equal entries are not always repeated.

Legend:
[1] = target: recombinant human Ndc80 kinetochore complex binding to taxol-stabilized microtubules; test: Ndc80^488 complex-MT binding assay (fluorescence microscopy / TIRF); details: for pIC50: total internal reflection fluorescence microscopy, Ndc80^488 complex 0.1 µmol/l, taxol-stabilized MTs; for Fold more active than compound B in the Ndc80^488 complex-MT binding assay: versus compound B
From the text: To screen compound libraries for molecules inhibiting binding of the outer kinetochore Ndc80 complex (Ndc80, Nuf2, Spc24, Spc25) to MTs, we used a fluorescence microscopy-based in vitro approach (Fig. 1). First, the recombinant human Ndc80 construct, used to crystallize the complex, was produced in Escherichia coli using a bicistronic plasmid from which the Nuf2-Spc24 and Ndc80-Spc25 peptides were generated (Fig. 1A). Following their intracellular assembly, the complex was purified from E. coli cell extract based on the GST tag at the N-terminus of Nuf2. The complex was released in solution with PreScission Protease (its recognition sequence was introduced between the GST tag and the NUF2 coding sequence) and was separated from contaminants by gel filtration chromatography (Fig. 1A). The high degree of purity of the preparation was confirmed by SDS-PAGE analysis and coomassie staining, which identified only both peptides (Fig. 1B). Next, the Ndc80 complex was fluorescently labeled with the Alexa Fluor 488 C5-maleimide (next named the Ndc80^488 complex) and was separated from unreacted fluorophore by gel filtration chromatography. The final preparation was highly pure as evidenced by gel filtration analysis and detection at 519 nm (emission maximum of the Alexa Fluor 488 dye) and at 280 nm (intrinsic protein fluorescence) (Fig. 1B). Next, the Ndc80^488 complex (0.1 µmol/l) was incubated with 10,200 compounds (comprising the Chembridge DIVERset and a compound collection from the Univ. Rome) at a starting concentration of 50 µmol/l. Binding (or lack thereof) of the complex to rhodamine-labeled taxol-stabilized MTs (0.1 µmol/l) was scored by wide-field fluorescence microscopy (Fig. 1C; images in Fig. 2A). […] Total internal reflection fluorescence microscopy was used to establish the IC50 value of the compound, which was measured to be ∼20 µmol/l (Fig. 2C).
Recombinant human Ndc80 complex (Ndc80^Bonsai complex) was produced in Escherichia coli using a bicistronic expression plasmid (Fig. 1A, [12]). Following transcription from the TAC promoter/operator by induction with 0.4 mmol/l IPTG (20°C, 15 h), GST-Nuf2-Spc24 and Ndc80-Spc25 polypeptides were generated, which dimerized intracellulary into the GST-Ndc80 complex. The complex was isolated from E. coli cell extract following incubation with glutathione beads. The complex was released from the beads with PreScission Protease (GE Healthcare Life Sciences) and contaminants were removed by gel filtration chromatography (Superdex 200, GE Healthcare Life Sciences). On average 4 mg of Ndc80 complex were obtained from 1 liter of cell culture. Next, 1 mg Ndc80 complex was labeled with 0.1 mg Alexa Fluor 488 C5-maleimide fluorophore (Invitrogen) at a 1.5-2 stoichiometry. The fluorescent complex (Ndc80^488 complex) was separated from unreacted fluorophore by gel filtration chromatography (Fig. 1B) and was then used to screen for compounds inhibiting Ndc80^488 complex-MT binding (Fig. 1C). The Ndc80^488 complex is fully functional as it is recruited to and acts at kinetochores when injected into prometaphase HeLa cells.
MTs were polymerized (30 min, 37°C) from a 1∶10 mixture of rhodamine-labeled:unlabeled bovine brain αβ-tubulin (Cytoskeleton) in BRB-80 buffer (80 mmol/l PIPES pH 6.8, 1 mmol/l MgCl2, 1 mmol/l EGTA) and were then stabilized with 20 µmol/l taxol. The Ndc80^488 complex (0.1 µmol/l) was incubated with 100 µmol/l compound (30 min, 24°C) in 96-well polypropylene plates (Eppendorf). The 10,000 compound DIVERset library (Chembridge) and 200 compounds from the Department of Medicinal Chemistry and Technologies, University of Rome La Sapienza were used in the screen. Next, the MTs (100 nmol/l) were added to the compound-Ndc80^488 complex solution in a 1∶1 v/v ratio. After incubation (10 min, 24°C), the reaction mixtures were transferred to 96-well glass-bottom plates (Greiner Bio-one). […]

[2] = tested on: colchicine site in αβ-tubulin; test: [3H]colchicine competition (DEAE-cellulose filter method); format: binding; details: [3H]colchicine 5 µmol/l, tubulin 1 µmol/l
From the text: Agents that inhibit tubulin polymerization and destabilize MTs include the colchicinoids, combretastatins, benzimidazole carbamates, vinca alkaloids, and maytansinoids. These drugs act primarily at β-tubulin in the αβ-heterodimer, albeit at different sites. Colchicinoids, combretastatins and benzimidazole carbamates (e.g. nocodazole) localize to the colchicine site near the C-terminus of β-tubulin at the αβ-tubulin intradimer interface, [16], whereas vinca alkaloids and maytansinoids localize to the N-terminal GTPase domain of β-tubulin [17], [18]. […] Its binding affinity, however, was ∼3-fold lower than that of nocodazole (compare values at 5 µmol/l and 20 µmol/l, Fig. 5C).
Tubulin binding of [^3H]colchicine was measured by the DEAE-cellulose filter method. Reaction mixtures contained 1.0 µmol/l αβ-tubulin, 1.0 mol/l monosodium glutamate, 0.1 mol/l glucose-1-phosphate, 1.0 mmol/l MgCl2, 1.0 mmol/l GTP, 0.5 mg/ml BSA, 5% DMSO, 5 µmol/l [^3H]colchicine, and inhibitor at 1, 5, 20 or 50 µmol/l. These reaction conditions strongly stabilize the colchicine-binding activity of tubulin [21].

[3] = tested on: αβ-tubulin; test: Tubulin polymerization tracked turbidimetrically at 350 nm; format: biochemical; details: turbidimetric; versus compound B
Procedure: To quantify the antitubulin activity of compound B, we added 1–50 µmol/l compound B to 10 µmol/l αβ-tubulin. […] For this purpose, MTs were assembled from 10 µmol/l αβ-tubulin; 5 min into the reaction compound B was added in concentrations up to 200 µmol/l. MT depolymerization was tracked as a decrease in turbidity at 350 nm (Fig. 5B).
Polymerization of 10 µmol/l αβ-tubulin in BRB-80 buffer was monitored turbidimetrically at 350 nm for 15 min in a temperature-controlled spectrophotometer (37°C; SpectraMax Plus^384, Molecular Devices). To probe the effect of a compound on MT stability the molecule was added 5 min after initiation of tubulin assembly. The decrease in protein turbidity (350 nm) resulting from MT depolymerization was followed for 15 min at 37°C [13]. Quantitative comparisons of drug effects on tubulin assembly were also examined in 0.8 M glutamate with a 15 min drug-tubulin preincubation prior to the addition of GTP [14]. Tubulin assembly was monitored for 20 min at 30°C in Beckman DU7400/7500 spectrophotometers, and the compound concentration inhibiting tubulin assembly by 50% was determined.

[4] = tested on: HeLa cells; test: Mitotic delay and cell death in G1/S-synchronized HeLa cells (time-lapse videomicroscopy); format: cell-based, human; details: HeLa released from G1/S; 500 nmol/l
Procedure: At compound B concentrations of 5 µmol/l and above, the cells arrested robustly in metaphase (∼15 h) and then underwent cell death, as diagnosed by cell shrinkage (Fig. 3B). […] This phenotype is indicative of chromatids being unable to bind to spindle MTs and/or of spindle defects, as observed with nocodazole (Fig. 3C). […] Because drugs that inhibit tubulin polymerization also destabilize MTs, we next probed whether compound B destabilized metaphase spindles. We arrested HeLa cells in metaphase using 10 µmol/l of proteosome inhibitor MG132. […] Thus, compound B prevents tubulin assembly and destabilizes spindle MTs in cells.
Next, we determined whether the elevated antitubulin activities of compounds A6, A8, D7 and E7 (versus compound B), and the discrepancies in activity between the compounds themselves were reflected in their effects on mitosis. G1/S synchronized HeLa cells were released into growth medium containing 100 or 500 nmol/l of these compounds or compound B; the duration of the mitotic delay by the compounds and the percentage of cells undergoing subsequent cell death were scored. […] The four compounds triggered mitotic delays to an extent that directly reflects their activities in vitro (compare Fig. 6E and Fig. 6, panels B to D). […] Of note, each of our compounds acted in cells with an efficacy exceeding those measured in vitro (compare Fig. 6E and Fig. 5). This discrepancy may be due to increased compound:tubulin ratios in cells. Alternatively, the compounds may be modified intracellularly, resulting in enhanced activity. Because compound B and the four second-generation compounds are 6-furan-2-yl-3-methyl-4-oxo-4,5,6,7-tetrahydro-1H-indole-2-carboxylic acid derivatives, we have named these tubulin inhibitors “furan-metoticas”.

[5] = tested on: taxol-stabilized MTs; test: Compound-based depolymerization of taxol-stabilized MTs in vitro; format: biochemical, bovine; details: compound 50 µmol/l; taxol (20 µmol/l)-stabilized MTs
Procedure: To test this hypothesis, we treated HeLa cells with 0.5 µmol/l taxol, thereby arresting them in metaphase with stabilized spindles. […] To quantify the taxol-mediated inhibition of MT disassembly by compound B, we measured in vitro the depolymerization of taxol (20 µmol/l)-stabilized MTs following incubation with 50 µmol/l compound B (the screen condition). Nocodazole and maytansine (both at 50 µmol/l) were included as controls. At 50 µmol/l, compound B depolymerized 3% of the taxol-stabilized MT population, while nocodazole and maytansine depolymerized 11% and 31% of the taxol-treated MTs, respectively (Fig. 4B). […] This finding further supports our hypothesis that the interaction of compound B with the stabilized MTs must have prevented the Ndc80^488 complex from establishing contact with the MT surface.
MTs were polymerized (30 min, 37°C) from a 1∶10 mixture of rhodamine-labeled:unlabeled bovine brain αβ-tubulin (Cytoskeleton) in BRB-80 buffer (80 mmol/l PIPES pH 6.8, 1 mmol/l MgCl2, 1 mmol/l EGTA) and were then stabilized with 20 µmol/l taxol. The Ndc80^488 complex (0.1 µmol/l) was incubated with 100 µmol/l compound (30 min, 24°C) in 96-well polypropylene plates (Eppendorf). The 10,000 compound DIVERset library (Chembridge) and 200 compounds from the Department of Medicinal Chemistry and Technologies, University of Rome La Sapienza were used in the screen. Next, the MTs (100 nmol/l) were added to the compound-Ndc80^488 complex solution in a 1∶1 v/v ratio. After incubation (10 min, 24°C), the reaction mixtures were transferred to 96-well glass-bottom plates (Greiner Bio-one). Each well was imaged at 519 nm and 590 nm with an IX81 Olympus inverted wide-field microscope (Olympus). Total internal reflection fluorescence imaging was performed with an Olympus IX71 inverted wide-field microscope (Olympus). ImageJ was used for image processing (NIH, USA).
Taxol-stabilized MTs were prepared and diluted as described for the Ndc80^488 binding experiments. Varying compound concentrations in 10 µl of DMSO were added to 490 µl of diluted MTs at 37°C. Following incubation (30 min, 37°C), 450 µl of each mixture was centrifuged (10 min; 30,000 rpm; 37°C) in a Beckman Optima TLX centrifuge (TLA120.1 rotor). Pellets were dissolved in 25 µl of 8 mol/l urea, and the protein content of 20 µl was compared with that from pellets formed without compound.

Q: Cc1c(C(=O)OC2CCCCC2)[nH]c2c1C(=O)C[C@@H](c1ccco1)C2 [A6] was tested. Which pIC50 [1] did it give?
A: ~6.00 and 6.00

Q: What about the “Fold more active than compound B in the Ndc80^488 complex-MT binding assay” value [1] of the same compound?
A: ~20 fold

Q: What about the “Fold more active than compound B as inhibitors of [3H]colchicine-tubulin binding” value [2] of the same compound?
A: 3 fold

Q: And the “Fold lower IC50 for inhibiting tubulin assembly than that of compound B” value [3]?
A: 2.3 fold

Q: Which results are given for C/C=C/COC(=O)c1[nH]c2c(c1C)C(=O)C[C@@H](c1ccco1)C2 [D7]?
A: Effect on mitosis at 500 nmol/l [4]: robust mitotic block, followed by cell death; pIC50 [1]: ~6.00 and 6.00; Fold more active than compound B in the Ndc80^488 complex-MT binding assay [1]: ~20 fold; Fold more active than compound B as inhibitors of [3H]colchicine-tubulin binding [2]: 3 fold; Fold lower IC50 for inhibiting tubulin assembly than that of compound B [3]: 3.0 fold

Q: How did the “Effect on mitosis at 500 nmol/l” value [4] turn out when C=CCOC(=O)c1[nH]c2c(c1C)C(=O)C[C@@H](c1ccco1)C2 [E7] was run?
A: robust mitotic block, followed by cell death

Q: What about the pIC50 [1] of the same compound?
A: ~6.00 and 6.00

Q: And the “Fold more active than compound B in the Ndc80^488 complex-MT binding assay” value [1]?
A: ~20 fold

Q: What about the “Fold more active than compound B as inhibitors of [3H]colchicine-tubulin binding” value [2] of the same compound?
A: 3 fold

Q: What about the “Fold lower IC50 for inhibiting tubulin assembly than that of compound B” value [3] of the same compound?
A: 4.0 fold

Q: Which “Taxol-stabilized MT population depolymerized” value [5] does the source give for COc1cc2cc(c1Cl)N(C)C(=O)C[C@H](OC(=O)[C@H](C)N(C)C(C)=O)[C@]1(C)O[C@H]1[C@H](C)[C@@H]1C[C@@](O)(NC(=O)O1)[C@H](OC)/C=C/C=C(\C)C2 [maytansine, reference compound] here?
A: 31%
